The values below come from US20230124720A1, “APPLICATION OF ACRIDINEDIONE COMPOUND IN PREPARATION OF ANTI-DIABETIC DRUGS” (THE FOURTH MILITARY MEDICAL UNIVERSITY, priority 2020, published 2023).

For data set [1] the following is noted: n = 6.
The next data set concerns MIN6 cells. Put plainly: Insulin secretion in PA-induced insulin-resistant MIN6 cells. Format: cell-based, mouse. On the procedure:
MIN6 cells were seeded in 24-well plates and cultured as described in step 2.1 to a cell confluency of more than 80% and administrated in the following groups, with 12 replicates per group: (1) normal control group (Con): cultured with blank 1640 medium; (2) insulin resistance model panel (IR): treated with 0.125 mmol/L PA for 24 h to induce establishment of an insulin resistance model; (3) ADD-16 administration group (ADD): 10 μmol/L ADD-16 intervention was administered for 24 h after successful establishment of the insulin resistance model; (4) TAK875 control group (TAK875): 10 μmol/L TAK875 was administered as a positive control drug intervention for 24 h after successful establishment of the insulin resistance model; (5) metformin control group (MT): 10 mmol/L metformin was administered as a positive control drug intervention for 24 h after successful establishment of the insulin resistance model; (6) sitagliptin control group (ST): 10 μmol/L sitagliptin was administered as a positive control drug intervention for 24 h after successful establishment of the insulin resistance model. After the group administration, the medium was aspirated and washed 2 times with a KRB buffer without sugar, followed by the addition of the KRB buffer without sugar. […] After incubation at 37° C. for 1 h, all the medium in the wells was aspirated and centrifuged at 2000 rmp/min for 20 min, and the supernatant was collected and stored at −20° C. The insulin content was measured for each group.

The next data set has as its system STZ-induced T2DM rats. As to the kind of experiment: Serum insulin and HOMA-IR in T2DM rats. Format: in vivo, rat. The procedure:
150 male SD rats, housed in cages in a clean constant temperature (23±2° C.) and humidity (55±10%) animal house, were manually adjusted on a daily 12 h/12 h diurnal light cycle with free access to water. After 3 days of adaptive feeding, 150 rats were randomly divided into normal and model groups. The normal (Con, n=15) group of rats remained on raw chow and the model group (n=135) of rats were given high fat high sugar chow. All rats were fed twice daily and the amount of feed was adjusted as needed to ensure adequate feed. After 8 weeks of group feeding, the model group rats were given an intraperitoneal injection of 25 mg/kg STZ solution with a 12 h fast prior to injection. […] At the same time, the Con group was daily administrated with a 0.5% CMC-Na solution by gavage, the body weight and postprandial blood sugar (PBG) of each group of rats were monitored weekly. Relevant indicators of lipid metabolism were measured after the end of the study.
In T2DM rat serum insulin assay, fasting serum insulin levels in rats were measured by a commercial insulin ELISA kit. The extent of body insulin resistance was assessed using the Insulin Resistance Index, which was calculated using the Homeostasis model assessment (HOMA-IR) according to literature reports, i.e., HOMA-IR=(fasting glucose×fasting insulin)/22.5.

Data set [2] is described as follows: Plasma kinetics after single oral administration in SD rats (LC-MS/MS). The data set is classed as in vivo, rat. The settings on record: single oral 10 mg/kg. On the procedure: Eight healthy male SD rats, weighing 200-220 g, were housed in a clean animal room maintained at constant temperature (23±2° C.) and humidity (55±10%) with a 12 h/12 h artificial light cycle with free access to food and water and conditioned for 3 days prior to the experiment. All rats were fasted from water for 12 h prior to the experiment, and after oral administration of an ADD-16 solution (10 mg/kg) to each rat, and blood was taken at the orbital site at 5, 10, 15, 30, 45, 60, 120, 240, 360, 720, 1440 min. The blood was immediately fed into heparinized centrifuge tubes at 4° C., 3000 rpm/min, centrifuged for 10 min, and the supernatant plasma was carefully aspirated and stored at −80° C. Assays were performed by natural thawing at room temperature and plasma sample pre-treatment procedures were followed to determine plasma concentrations in rats following a single dose using the established LC-MS/MS method.

Each structure is given as a SMILES string.

`CC1(C)CC(=O)C2=C(C1)NC1=C(C(=O)CC(C)(C)C1)C2c1ccc(OCc2ccc(C(=O)O)cc2)c(Br)c1` [ADD-16]: the LD50 in data set [1] is 123.2 µmol/L. Moreover, in the data set with MIN6 cells (PA-induced IR model, 10 μmol/L, 24 h, 2.8 and 16.7 mmol/L glucose, P<0.001), the “insulin secretion level in insulin-resistant MIN6 cells (in words)” value is recorded as “even higher than in Con group”. Also, in the data set with MIN6 cells (same administration concentrations (10 μmol/L)), the “insulinotropic effect compared with TAK875 in insulin-resistant MIN6 cells (in words)” value is listed as “slightly better than TAK875”. In addition, the “HOMA-IR (in words)” value in the data set with STZ-induced T2DM rats is “significantly reduced HOMA-IR values”. For the same molecule, the “serum insulin level (in words)” value with STZ-induced T2DM rats (fasting serum) is recorded as “reduce compensatorily elevated insulin levels”. Moreover, the CL/F in data set [2] (male, SD, rat, plasma, po, 10 mg/kg, plasma, n = 8, read-out: CLz/F (clearance) (converted)) was around 0.15 mL/min/kg. Further, the Cmax in data set [2] (male, SD, rat, plasma, po, 10 mg/kg, plasma, n = 8, read-out: Cmax (plasma concentration maximum)) is around 395 ng/mL. Also, the Vd/F in data set [2] (male, SD, rat, plasma, po, 10 mg/kg, plasma, n = 8, read-out: Vz/F (apparent volume of distribution)) is around 0.36 L/kg. Further, in data set [2] (male, SD, rat, plasma, po, 10 mg/kg, plasma, n = 8, read-out: t1/2z (half-life) (converted)), the half-life was around 30.2 h. Further, in data set [2] (male, SD, rat, plasma, n = 8), the AUC(0-inf) turned out to be 2420 ± 527 ng·h/mL, the AUC(0-t) came to 1130 ± 35.7 ng·h/mL and the Tmax was found to be 0.5 h. Also, the MRT last in data set [2] (male, SD, rat, plasma, n = 8, read-out: MRT(0-t)) came out at 8.8 ± 0.4 h. In data set [2] (male, SD, rat, plasma, n = 8, read-out: MRT(0-∞)), the MRT inf was determined as 37.5 ± 9.2 h. In data set [2], the “time of maximum blood concentration” value came out at 30 min. For the same molecule, in data set [2] (plasma, n = 8), the Cz worked out at 29.8 ± 10.3 ng/mL, the “VRT(0-t)” value is given as 55.2 ± 3.0 h^2 and the “VRT(0-∞)” value turned out to be 1908.2 ± 835.5 h^2.

By AUC(0-inf) is commonly meant total exposure, with the tail of the curve extrapolated. Read a high AUC(0-inf) as more exposure. What is called AUC(0-t) is exposure summed from dosing to a finite time, without extrapolation to infinity. Usually Tmax stands for the time at which the peak concentration occurs.
